{"source": "patent US9790504B2", "about": "“Anti-tumor therapy” (The University of Chicago, priority 2013, dated 2017)", "key": {"[1]": {"system": "two lung cancer cell lines", "settings": "associated with suppression of the Stat3 pathway; cited from earlier work"}, "[2]": {"system": "Stat3", "assay": "Western blot of interferon-mediated Stat3 activation with Jak inhibitors", "assay_type": "cell-based", "settings": "β- and γ-interferon (Type I and Type II IFN) signaling, SCC61 cells", "method": "(§1) Treatment with TG and Rux inhibited β- and γ-interferon-mediated activation of Stat1 and Stat3;\n(§2) Total cellular protein was extracted in radioimmunoprecipitation assay buffer with protease inhibitors added (1×PBS, 1% NP40, 0.5% sodium deoxycholate, 0.1% SDS, 1 mmol/L Na3VO4, 2 μg/mL aprotinin, 1 mmol/L phenylmethylsulfonyl fluoride). All samples were normalized by protein concentration using Bradford reagent and standard solution of bovine serum albumin (1 mg/mL). Concentration of all samples was adjusted to 1 mg/mL and equal amount of protein was loaded in each well. For total proteins, 10 μg of protein was loaded per well. Proteins were separated on 7.5%-12% SDS-PAGE (depending on molecular mass of protein) and transferred to polyvinylidene difluoride membranes (PVDF). Total proteins were detected using the rabbit or goat primary Abs. For loading control, the antibodies for actin (I-19) and glyceraldehyde-3-phosphate dehydrogenase (GAPDH; FL-335) were used. All antibodies were purchased from Santa Cruz Biotechnology. Images were quantified with ImageJ software by integration pixel values across the area of specific bands.\n(§3) The effects of Jak1/2 and Jak2 inhibitors were investigated on the activation of Stat1 and Stat3 in the context of Type I and Type II IFN signaling. […]"}, "[3]": {"system": "CWRR1 (pStat3-negative) xenografts", "assay": "Xenograft in nude mice treated by ionizing radiation, TG, or their combination", "assay_type": "in vivo", "settings": "without constitutive activation of Jak/Stat signaling", "method": "(§4) The relative sensitivity of lung cancer cell lines to TG and etoposide—one of the most common drugs in adjuvant chemotherapy of lung cancer was also tested. Subgroups of cell lines were found with relatively high resistance to etoposide (SF>0.5) but relatively sensitive to TG (0.1<SF<0.2; see FIG. 8). As proof of principle, two isogenic cell lines CWRR1 (pStat3-negative, without constitutive activation of Jak/Stat-signaling) and CW22Rv1 (with constitutively active Jak/Stat signaling) were established as xenografts in nude mice and treated by ionizing radiation, TG, or their combination."}, "[4]": {"system": "CW22Rv1 (pStat3-positive) xenografts", "assay": "Xenograft in nude mice treated by ionizing radiation, TG, or their combination", "assay_type": "in vivo", "settings": "constitutively active Jak/Stat signaling", "method": "as §4"}, "[5]": {"system": "H2030 cells", "assay": "Clonogenic assay, ionizing radiation plus TG", "assay_type": "cell-based", "settings": "5 Gy+1 μM TG; most radioresistant cells", "method": "(§5) To screen the candidate interferon-stimulated genes, a panel of fifteen individual cancer cell lines were selected from those available in our lab, the ATCC, or affiliated laboratories (see Table No. 3, below). These cell lines were characterized for relative radioresistance using a clonogenic assay. Briefly, the cells were cultured in their appropriate media at 5% CO2 at 37° C. Optimal cell plating concentrations for a p60 dish were determined for each cell line. The majority of cell lines were plated in triplicate at concentrations of 100 cells/plate for control, 1000 cells/plate for 2 Gy, 2000 cells/plate for 5 Gy, and 3000 cells/plate for 8 Gy. Plates were irradiated 24 hours after plating with either 2, 5, or 8 Gy using a Nordion Gammacell ^60Co irradiator operating at a dose rate of ˜18 Gy/minute. Cells were allowed to grow for 10-21 days (depending on the cell line) until colonies were >50 cells. Plates were then fixed with formalin and stained with crystal violet. Colonies with more than 50 cells were counted. Clonogenic survival for Clonogenic data was obtained for all cell lines tested in screen.\nIn subsequent experiments, 18 lung cancer cell lines were tested for sensitivity to the Jak2 inhibitor SAR302503 (TG) using a clonogenic assay. […] Further, radioresistance was positively correlated with resistance to Jak2 suppression in 11 cell lines."}, "[6]": {"system": "Stat1", "assay": "Western blot of interferon-mediated Stat1 activation with Jak inhibitors", "assay_type": "cell-based", "settings": "β- and γ-interferon (Type I and Type II IFN) signaling, SCC61 cells", "method": "as §1, §2, §3"}, "[7]": {"system": "lung cancer cell lines", "assay": "Clonogenic assay, sensitivity of lung cancer cell lines to drug", "assay_type": "cell-based", "method": "as §5\nIn subsequent experiments, 18 lung cancer cell lines were tested for sensitivity to the Jak2 inhibitor SAR302503 (TG) using a clonogenic assay. […] Further, radioresistance was positively correlated with resistance to Jak2 suppression in 11 cell lines. […]"}, "[8]": {"system": "different cell lines", "assay": "Suppression of tumor growth in different cell lines", "assay_type": "cell-based", "settings": "data not shown"}}, "note": "Entries after “also recorded” stand apart in the source; their conditions may differ."}
{"smiles": "Cc1cnc(Nc2ccc(N3CCN(C)CC3)cc2)nc1Nc1cccc(S(=O)(=O)NC(C)(C)C)c1", "note": "[TG101209]", "values": [{"measurement": "radiosensitizing effects", "setting": "[1]", "result": "radiosensitizing effects"}]}
{"smiles": "Cc1cnc(Nc2ccc(OCCN3CCCC3)cc2)nc1Nc1cccc(S(=O)(=O)NC(C)(C)C)c1", "note": "[TG]", "values": [{"measurement": "phosphorylation (activation) of Stat3", "setting": "[2]", "result": "suppressed; also recorded: inhibited"}, {"measurement": "sensitization to ionizing radiation", "setting": "[3]", "result": "not sensitized"}, {"measurement": "sensitization to ionizing radiation", "setting": "[4]", "result": "successfully sensitized"}, {"measurement": "clonogenic colonies", "setting": "[5]", "result": "no clonogenic colonies formed"}, {"measurement": "phosphorylation (activation) of Stat1", "setting": "[6]", "result": "suppressed; also recorded: inhibited"}, {"measurement": "sensitivity to TG", "setting": "[7]; 7 relatively radioresistant cell lines of 18 lung cancer cell lines, clonogenic assay", "result": "high sensitivity"}, {"measurement": "suppression of tumor growth compared to Ruxolitinib", "setting": "[8]", "result": "more effectively suppressed tumor growth compared to Ruxolitinib"}]}
{"smiles": "COc1cc([C@@H]2c3cc4c(cc3[C@@H](O[C@@H]3O[C@@H]5CO[C@@H](C)O[C@H]5[C@H](O)[C@H]3O)[C@H]3COC(=O)[C@H]23)OCO4)cc(OC)c1O", "note": "[etoposide]", "values": [{"measurement": "SF (surviving fraction)", "setting": "[7]; subgroups of lung cancer cell lines with high resistance to etoposide but relatively sensitive to TG", "result": "> 0.5"}]}
